Data as given in paper PMC8562313, “Cytotoxicity of Amino‐BODIPY Modulated via Conjugation with 2‐Phenyl‐3‐Hydroxy‐4(1H)‐Quinolinones” (ChemistryOpen, 2021).

Assay: GSH-mediated cleavage monitored by LC/MS
Assay type: physicochemical
Conditions: 5 mM GSH, 5 μM conjugate 11 in HEPES buffer, 7.4 pH, 37 °C
Description: As reported previously, the GSH mediated cleavage of the disulfide linker results in the release of the 3‐HQ derivative together with the Amino‐BODIPY.[30] […] As the mechanism of GSH‐mediated cleavage and LC/MS analysis in Figure 2A and 2B depict nucleophilic thiol group on glutathione attacks the disulfide bond resulting in the formation of GSH adducts 19 and 20. Intermediate 19 further reacts with excess of GSH and self‐immolative linker is cyclized while free Amino‐BODIPY 16 is released.
Figure 2 (A) Mechanism of GSH‐mediated cleavage of conjugate 11 (5 mM GSH, 5 μM conjugate 11 in HEPES buffer, 7.4 pH, 37 °C). (B) Time‐dependent stability of compounds 1, 11, 16, 19 and 20 monitored by LC/MS. (C) Excitation/emission spectra of the conjugate 11 and the released Amino‐BODIPY 16 enabling the OFF‐ON fluorescence effect when excitation at 485 nm and emission at 530 nm is applied.

## NC(=O)C(CSSC[C@H](NC(=O)CC[C@H](N)C(=O)O)C(=O)NCC(=O)O)NC(=O)c1ccc2c(=O)c(O)c(-c3ccccc3)[nH]c2c1 (stereo partly shown) [Compound 20]
  Stability of cleavage intermediate by LC/MS: relatively stable
